# Earlier results, collected in patent US12496330B2, “Methods of improving spinal fusion with abaloparatide” (Radius Health, Inc., priority 2019, dated 2025).
# Tested on: bone resorption and bone formation markers
# Conditions: male mice; at 4-fold the current dose
compound,measurement,value
CC[C@H](C)[C@H](NC(=O)[C@H](CCC(=O)O)NC(=O)[C@H](CO)NC(=O)[C@@H](NC(=O)[C@@H](N)CO)C(C)C)C(=O)N[C@@H](CCC(N)=O)C(=O)N[C@@H](CC(C)C)C(=O)N[C@@H](CCSC)C(=O)N[C@@H](Cc1cnc[nH]1)C(=O)N[C@@H](CC(N)=O)C(=O)N[C@@H](CC(C)C)C(=O)NCC(=O)N[C@@H](CCCCN)C(=O)N[C@@H](Cc1cnc[nH]1)C(=O)N[C@@H](CC(C)C)C(=O)N[C@@H](CC(N)=O)C(=O)N[C@@H](CO)C(=O)N[C@@H](CCSC)C(=O)N[C@@H](CCC(=O)O)C(=O)N[C@@H](CCCN=C(N)N)C(=O)N[C@H](C(=O)N[C@@H](CCC(=O)O)C(=O)N[C@@H](Cc1c[nH]c2ccccc12)C(=O)N[C@@H](CC(C)C)C(=O)N[C@@H](CCCN=C(N)N)C(=O)N[C@@H](CCCCN)C(=O)N[C@@H](CCCCN)C(=O)N[C@@H](CC(C)C)C(=O)N[C@@H](CCC(N)=O)C(=O)N[C@@H](CC(=O)O)C(=O)N[C@H](C(=O)N[C@@H](Cc1cnc[nH]1)C(=O)N[C@@H](CC(N)=O)C(=O)N[C@@H](Cc1ccccc1)C(=O)O)C(C)C)C(C)C [teriparatide],Bone resorption markers,increased
